# Molecular target: T1, ΔF508-CFTR (Homo sapiens, UniProt P13569, DEL508-508)
# T1 construct: expressed in transfected cells
# Test: Membrane potential optical (FRET/VIPR) assay, identification of potentiator compounds
# Assay type: cell-based
# Settings: Table 3, assay not given; for % Activity: relative efficacy
# Text: I) Membrane Potential Optical Methods for Assaying ΔF508-CFTR Modulation Properties of Compounds The optical membrane potential assay utilized voltage-sensitive FRET sensors described by Gonzalez and Tsien (See, Gonzalez, J. E. and R. Y. Tsien (1995) “Voltage sensing by fluorescence resonance energy transfer in single cells” Biophys J 69(4): 1272-80, and Gonzalez, J. E. and R. Y. Tsien (1997) “Improved indicators of cell membrane potential that use fluorescence resonance energy transfer” Chem Biol 4(4): 269-77) in combination with instrumentation for measuring fluorescence changes such as the Voltage/Ion Probe Reader (VIPR) (See, […]. Oades, et al. (1999) “Cell-based assays and instrumentation for screening ion-channel targets” Drug Discov Today 4(9): 431-439). These voltage sensitive assays are based on the change in fluorescence resonant energy transfer (FRET) between the membrane-soluble, voltage-sensitive dye, DiSBAC2(3), and a fluorescent phospholipid, CC2-DMPE, which is attached to the outer leaflet of the plasma membrane and acts as a FRET donor. Changes in membrane potential (Vm) cause the negatively charged DiSBAC2(3) to redistribute across the plasma membrane and the amount of energy transfer from CC2-DMPE changes accordingly. The changes in fluorescence emission were monitored using VIPR which is an integrated liquid handler and fluorescent detector designed to conduct cell-based screens in 96- or 384-well microtiter plates. To identify potentiators of ΔF508-CFTR, a double-addition HTS assay format was developed. During the first addition, a Cl^--free medium with or without test compound was added to each well. […] (in mM) NaCl 160, KCl 4.5, CaCl2 2, MgCl2 1, HEPES 10, pH 7.4 with NaOH. • Chloride-free bath solution: Chloride salts in Bath Solution #1 are substituted with gluconate salts. • CC2-DMPE: Prepared as a 10 mM stock solution in DMSO and stored at -20° C. • DiSBAC2(3): Prepared as a 10 mM stock in DMSO and stored at -20° C. NIH3T3 mouse fibroblasts stably expressing ΔF508-CFTR are used for optical measurements of membrane potential. […] For all optical assays, the cells were seeded at 30,000/well in 384-well matrigel-coated plates and cultured for 2 hrs at 37° C. before culturing at 27° C. for 24 hrs. for the potentiator assay.
# T1 sequence (P13569 with tags, fused parts or gaps DEL508-508): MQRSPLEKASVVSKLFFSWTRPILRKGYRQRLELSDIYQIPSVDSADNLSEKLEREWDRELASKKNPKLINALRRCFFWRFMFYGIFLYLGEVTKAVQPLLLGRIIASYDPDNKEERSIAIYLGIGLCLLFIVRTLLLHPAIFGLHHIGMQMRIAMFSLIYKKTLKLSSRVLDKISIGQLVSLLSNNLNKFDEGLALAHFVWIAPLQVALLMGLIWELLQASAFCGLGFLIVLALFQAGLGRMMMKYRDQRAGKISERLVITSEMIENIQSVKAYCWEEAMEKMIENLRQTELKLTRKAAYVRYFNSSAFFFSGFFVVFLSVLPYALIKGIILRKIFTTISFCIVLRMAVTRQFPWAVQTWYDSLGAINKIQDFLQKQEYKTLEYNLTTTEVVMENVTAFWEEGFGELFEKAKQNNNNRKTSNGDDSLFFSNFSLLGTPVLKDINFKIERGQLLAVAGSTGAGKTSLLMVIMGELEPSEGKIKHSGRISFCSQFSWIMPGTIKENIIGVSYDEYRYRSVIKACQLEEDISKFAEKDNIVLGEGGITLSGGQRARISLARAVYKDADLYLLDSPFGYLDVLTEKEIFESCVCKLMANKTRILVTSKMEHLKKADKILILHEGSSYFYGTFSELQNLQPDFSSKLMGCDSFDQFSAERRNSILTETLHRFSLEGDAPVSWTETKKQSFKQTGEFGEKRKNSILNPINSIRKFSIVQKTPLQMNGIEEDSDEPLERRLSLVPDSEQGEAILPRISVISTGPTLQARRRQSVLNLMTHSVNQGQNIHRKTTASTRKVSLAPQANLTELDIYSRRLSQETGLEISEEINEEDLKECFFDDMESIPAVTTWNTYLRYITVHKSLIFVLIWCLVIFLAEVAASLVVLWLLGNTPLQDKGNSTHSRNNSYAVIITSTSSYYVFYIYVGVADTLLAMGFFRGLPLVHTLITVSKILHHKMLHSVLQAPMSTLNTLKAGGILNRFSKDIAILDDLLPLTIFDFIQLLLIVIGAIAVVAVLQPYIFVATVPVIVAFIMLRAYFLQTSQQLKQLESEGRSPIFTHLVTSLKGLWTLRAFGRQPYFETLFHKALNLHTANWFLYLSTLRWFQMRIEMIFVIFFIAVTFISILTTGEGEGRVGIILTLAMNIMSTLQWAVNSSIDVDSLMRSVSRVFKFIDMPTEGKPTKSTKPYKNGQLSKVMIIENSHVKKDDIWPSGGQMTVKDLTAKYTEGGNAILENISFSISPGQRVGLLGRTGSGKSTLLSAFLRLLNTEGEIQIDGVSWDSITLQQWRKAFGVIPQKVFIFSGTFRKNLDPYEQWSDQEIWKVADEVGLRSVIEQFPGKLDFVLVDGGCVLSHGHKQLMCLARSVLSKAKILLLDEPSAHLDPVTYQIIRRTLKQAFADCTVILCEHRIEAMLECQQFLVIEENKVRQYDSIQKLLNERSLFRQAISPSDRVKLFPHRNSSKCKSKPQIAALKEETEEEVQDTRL
EC50 [µM],% Activity,Compound
< 10,++ (between 25% to 100%),"N#Cc1c[nH]c2cc(NC(=O)c3c[nH]c4ccccc4c3=O)ccc12 [Compound 339, N-(3-cyano-1H-indol-6-yl)-4-oxo-1H-quinoline-3-carboxamide]"
25 to 60,+ (<25%),"Cc1ccc(C(N)=O)c(NC(=O)c2c[nH]c3ccccc3c2=O)c1 [Compound 335, N-(2-carbamoyl-5-methyl-phenyl)-4-oxo-1H-quinoline-3-carboxamide]"
25 to 60,+ (<25%),"O=C(Nc1cccc(S(=O)(=O)N2CCCCC2)c1)c1c[nH]c2ccccc2c1=O [Compound 442, 4-oxo-N-[3-(1-piperidylsulfonyl)phenyl]-1H-quinoline-3-carboxamide]"
25 to 60,+ (<25%),"CC(C)(C)c1ccc(NC(=O)c2c[nH]c3ccccc3c2=O)cc1CN [Compound 390, N-[3-(Aminomethyl)-4-tert-butyl-phenyl]-4-oxo-1H-quinoline-3-carboxamide]"
< 10,++ (between 25% to 100%),"COc1ccccc1NC(=O)c1c[nH]c2ccccc2c1=O [Compound 80, N-(2-methoxyphenyl)-4-oxo-1H-quinoline-3-carboxamide]"
10 to 25,++ (between 25% to 100%),"COC(=O)NC1CCCc2ccc(NC(=O)c3c[nH]c4ccccc4c3=O)cc21 (centres unmarked) [Compound 159, [7-[(4-Oxo-1H-quinolin-3-yl)carbonylamino]tetralin-1-yl]aminoformic acid methyl ester]"
< 10,++ (between 25% to 100%),"O=C(Nc1cc(Cl)ccc1F)c1c[nH]c2ccccc2c1=O [Compound 48, N-(5-chloro-2-fluoro-phenyl)-4-oxo-1H-quinoline-3-carboxamide]"
10 to 25,++ (between 25% to 100%),"CC(C)(C)OC(=O)N1CCc2ccc(NC(=O)c3c[nH]c4ccccc4c3=O)cc2C1 [Compound 107, 7-[(4-oxo-1H-quinolin-3-yl)carbonylamino]-1,2,3,4-tetrahydroisoquinoline-2-carboxylic acid tert-butyl ester]"
< 10,++ (between 25% to 100%),"CC(C)c1c[nH]c2cc(NC(=O)c3c[nH]c4ccccc4c3=O)ccc12 [Compound 357, N-(3-isopropyl-1H-indol-6-yl)-4-oxo-1H-quinoline-3-carboxamide]"
< 10,++ (between 25% to 100%),"CSc1ccccc1NC(=O)c1c[nH]c2ccccc2c1=O [Compound 229, N-(2-methylsulfanylphenyl)-4-oxo-1H-quinoline-3-carboxamide]"
10 to 25,++ (between 25% to 100%),"N#Cc1ccccc1NC(=O)c1c[nH]c2ccccc2c1=O [Compound 95, N-(2-cyanophenyl)-4-oxo-1H-quinoline-3-carboxamide]"

# More lines, now with the values behind:
Compound,EC50 [µM],% Activity
"Cc1ccc(-c2ccccc2)cc1NC(=O)c1c[nH]c2ccccc2c1=O [Compound 454, N-(2-methyl-5-phenyl-phenyl)-4-oxo-1H-quinoline-3-carboxamide]",25 to 60,+ (<25%)
"CC(C)c1ccc(NC(=O)OC(C)(C)C)cc1NC(=O)c1c[nH]c2ccccc2c1=O [Compound 60, [4-isopropyl-3-[(4-oxo-1H-quinolin-3-yl)carbonylamino]phenyl]aminoformic acid tert-butyl ester]",< 10,++ (between 25% to 100%)
"Cc1cccc2[nH]cc(C(=O)Nc3ccc(N4CCC(C)C4)cc3C(F)(F)F)c(=O)c12 (centres unmarked) [Compound 546, 5-methyl-N-[4-(3-methylpyrrolidin-1-yl)-2-(trifluoromethyl)phenyl]-4-oxo-1H-quinoline-3-carboxamide]",< 10,++ (between 25% to 100%)
"O=C(Nc1ccccc1-c1ccccc1OC(F)(F)F)c1c[nH]c2ccccc2c1=O [Compound 156, 4-oxo-N-[2-[2-(trifluoromethoxy)phenyl]phenyl]-1H-quinoline-3-carboxamide]",< 10,++ (between 25% to 100%)
"CN(C)CCS(=O)(=O)Nc1cc(NC(=O)c2c[nH]c3ccccc3c2=O)cc(C(F)(F)F)c1 [Compound 359, N-[3-(2-dimethylaminoethylsulfonylamino)-5-(trifluoromethyl)phenyl]-4-oxo-1H-quinoline-3-carboxamide]",10 to 25,++ (between 25% to 100%)
"CC(=O)c1ccc2c(=O)c(C(=O)Nc3cc(O)c(C(C)(C)C)cc3C(C)(C)C)c[nH]c2c1 [Compound 604, 7-acetyl-N-(5-hydroxy-2,4-ditert-butyl-phenyl)-4-oxo-1H-quinoline-3-carboxamide]",< 10,++ (between 25% to 100%)
"CC(C)(C)c1cc(C(C)(C)C)c(NC(=O)c2c[nH]c3ccc(O)cc3c2=O)cc1O [Compound 702, 6-hydroxy-N-(5-hydroxy-2,4-ditert-butyl-phenyl)-4-oxo-1H-quinoline-3-carboxamide]",< 10,++ (between 25% to 100%)
"CC(C)(C)COC(=O)NCC(C)(C)c1ccc(NC(=O)c2c[nH]c3ccccc3c2=O)cc1 [Compound 341, [2-methyl-2-[4-[(4-oxo-1H-quinolin-3-yl)carbonylamino]phenyl]-propyl]aminoformic acid neopentyl ester]",< 10,++ (between 25% to 100%)
"O=C(Nc1ccc2cc(C(F)(F)F)[nH]c2c1)c1c[nH]c2cccc(O)c2c1=O [Compound 693, 5-hydroxy-4-oxo-N-[2-(trifluoromethyl)-1H-indol-6-yl]-1H-quinoline-3-carboxamide]",< 10,++ (between 25% to 100%)
"CC(C)(C)c1cc(C(C)(C)C)c(NC(=O)c2c[nH]c3cc(C#N)ccc3c2=O)cc1O [Compound 548, 7-cyano-N-(5-hydroxy-2,4-ditert-butyl-phenyl)-4-oxo-1H-quinoline-3-carboxamide]",< 10,++ (between 25% to 100%)
"CC(C)(C)c1ccc(O)cc1NC(=O)c1c[nH]c2ccc(F)cc2c1=O [Compound 665, 6-fluoro-N-(5-hydroxy-2-tert-butyl-phenyl)-4-oxo-1H-quinoline-3-carboxamide]",< 10,++ (between 25% to 100%)
"COc1ccc(NC(=O)c2c[nH]c3ccccc3c2=O)c(OC)n1 [Compound 193, N-(2,6-dimethoxy-3-pyridyl)-4-oxo-1H-quinoline-3-carboxamide]",10 to 25,++ (between 25% to 100%)
"CN(C)[C@H]1CCN(c2ccc(NC(=O)c3c[nH]c4ccccc4c3=O)c(C(F)(F)F)c2)C1 [Compound 513, (S)-N-(4-(3-(dimethylamino)pyrrolidin-1-yl)-2-(trifluoromethyl)phenyl)-4-oxo-1,4-dihydroquinoline-3-carboxamide]",< 10,++ (between 25% to 100%)
"CCOC(=O)c1cc(NC(=O)c2c[nH]c3ccccc3c2=O)cc2[nH]ccc12 [Compound 145, 6-[(4-oxo-1H-quinolin-3-yl)carbonylamino]-1H-indole-4-carboxylic acid ethyl ester]",,++ (between 25% to 100%)
"COc1cccc(-c2ccccc2NC(=O)c2c[nH]c3ccccc3c2=O)c1 [Compound 283, N-[2-(3-methoxyphenyl)phenyl]-4-oxo-1H-quinoline-3-carboxamide]",< 10,+++ (>100%)
"O=C(Nc1ccccc1-c1csc2ccccc12)c1c[nH]c2ccccc2c1=O [Compound 417, N-(2-(benzo[b]thiophen-3-yl)phenyl)-1,4-dihydro-4-oxoquinoline-3-carboxamide]",< 10,++ (between 25% to 100%)
"CCCc1ccc(N(C)C)cc1NC(=O)c1c[nH]c2ccccc2c1=O [Compound 98, N-(5-dimethylamino-2-propyl-phenyl)-4-oxo-1H-quinoline-3-carboxamide]",< 10,++ (between 25% to 100%)
"O=C(Nc1cc(O)cc(C(F)(F)F)c1)c1c[nH]c2cccc(O)c2c1=O [Compound 599, 5-hydroxy-N-[3-hydroxy-5-(trifluoromethyl)phenyl]-4-oxo-1H-quinoline-3-carboxamide]",< 10,++ (between 25% to 100%)
"COc1c(N)cc(C(C)(C)C)cc1NC(=O)c1c[nH]c2ccccc2c1=O [Compound 55, N-(3-amino-2-methoxy-5-tert-butyl-phenyl)-4-oxo-1H-quinoline-3-carboxamide]",25 to 60,+ (<25%)
